Numbering of substitutions follows the chain as printed.
What was measured:
TRPV3 Y594F mutation = molecular target: T1, TRPV3 Y594F mutation (Homo sapiens, UniProt Q8NET8, Y594F); assay: Whole-cell recording of TRPV3 Y594F mutant; type: cell-based; conditions: 1 mM 2-APB, ± 80 mV
T1 construct: YFP or GFP; expressed in transfected cells; host or cells: HEK293T
T1 sequence (Q8NET8 1-790 Y594F): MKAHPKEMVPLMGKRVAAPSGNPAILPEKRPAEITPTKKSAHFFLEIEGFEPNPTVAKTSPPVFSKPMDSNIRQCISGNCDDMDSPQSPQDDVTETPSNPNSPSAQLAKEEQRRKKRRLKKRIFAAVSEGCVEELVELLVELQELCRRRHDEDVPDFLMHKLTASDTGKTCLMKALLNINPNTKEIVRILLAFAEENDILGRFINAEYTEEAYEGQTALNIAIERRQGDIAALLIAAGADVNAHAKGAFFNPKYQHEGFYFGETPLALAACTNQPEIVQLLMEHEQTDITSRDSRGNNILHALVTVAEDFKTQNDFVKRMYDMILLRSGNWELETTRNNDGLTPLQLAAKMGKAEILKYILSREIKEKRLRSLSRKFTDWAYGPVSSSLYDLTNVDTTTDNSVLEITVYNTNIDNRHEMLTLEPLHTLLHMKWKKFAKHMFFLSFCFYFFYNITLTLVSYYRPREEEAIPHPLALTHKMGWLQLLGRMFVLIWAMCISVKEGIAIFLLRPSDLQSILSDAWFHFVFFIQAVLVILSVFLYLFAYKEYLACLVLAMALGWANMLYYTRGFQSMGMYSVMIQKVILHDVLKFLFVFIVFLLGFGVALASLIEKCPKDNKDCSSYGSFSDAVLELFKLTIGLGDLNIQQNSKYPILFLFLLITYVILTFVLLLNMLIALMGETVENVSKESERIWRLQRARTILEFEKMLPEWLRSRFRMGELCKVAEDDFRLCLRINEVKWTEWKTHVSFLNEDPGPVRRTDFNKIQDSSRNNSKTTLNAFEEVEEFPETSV
From the text: (§1) As we mentioned above, HCQ may act as a pore blocker of TRPV3. To probe the binding configuration of HCQ to TRPV3, we carried out molecular docking using Rosetta suite (https://rosettacommons.org) ([21]) and validated the docking models with point mutations in TRPV3 (Fig. 4A). […] Furthermore, when we introduced L670A to L591A mutant, we also observed a left shift on the concentration–response curve on this double mutant as compared to L591A mutant (Fig. 4H).
(§2) Figure 4 Residues of the pore domain are critical for HCQ inhibition on TRPV3.A, left panel, docking model of HCQ to the pore domain of TRPV3 structure (6uw4). Right panels, top view and side view of the HCQ-binding pocket. B-J, representative whole-cell recording of TRPV3 and mutants in response to 1 mM 2-APB, the mixture of 1 mM 2-APB and concentration gradients of HCQ with the holding potential of ± 80 mV. K, concentration–response curves of HCQ in WT TRPV3 and mutants (n = 3–5 cells). L, quantification of the inhibitory ratio of HCQ (100 μM) on WT, L591A, and N671Q. […]
All data from whole-cell recordings were analyzed in Igor Pro (WaveMetrics). IC50 values were determined by fitting the Hill equation to concentration-response relationships. […]

[1] = molecular target: T2, TRPV3 L670A + L591A double mutant (Homo sapiens, UniProt Q8NET8, L591A/L670A); assay: Whole-cell recording of TRPV3 L591A/L670A double mutant; type: cell-based; conditions: L670A introduced to L591A mutant
T2 construct: YFP or GFP; expressed in transfected cells; host or cells: HEK293T
T2 sequence (Q8NET8 1-790 L591A/L670A): T1 sequence (Q8NET8 1-790 Y594F) with L591A, F594Y, L670A
From the text: as §1
as §2, with “N671Q. Data are presented as mean ± SEM (n = 3–6 cells); F (2, 10) = 8.115, p = 0.0081 by one-way ANOVA using Dunnett’s multiple comparisons test. ∗∗, p = 0.0070 WT versus L591A; ∗, p = 0.0100 WT versus N671Q. 2-APB, 2-aminoethoxydiphenylborate; HCQ, hydroxychloroquine; TRP, transient receptor potential; TRPV3, transient receptor potential vanilloid 3 channel.” for “N671Q.”

- IC50 (TRPV3 Y594F mutation): 34.8 ± 1.59 µM
- shift of concentration–response curve on double mutant as compared to L591A mutant [1]: left shift
SMILES: CCN(CCO)CCCC(C)Nc1ccnc2cc(Cl)ccc12 (centres unmarked) [HCQ, hydroxychloroquine]
